Assay results taken from publication PMC8909834, “An Orally Bioavailable and Highly Efficacious Inhibitor of CDK9/FLT3 for the Treatment of Acute Myeloid Leukemia” (Cancers, 2022).

Legend:
Test in all cases: Kinase Hotspot radiolabel assay
Format in all cases: biochemical
Details in all cases: read-out: % Residual Activity
[1] = target: T1, FLT3 (Homo sapiens, UniProt P36888)
T1 construct: purchased Reaction Biology Corporation (Kinase HotSpot)
Procedure, shortened: (§1)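 Percent inhibition is from a radiometric Hotspot assay at 1 µM compound. The panel spans 369 kinases, and Ki measurement follows for those inhibited over 90%.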

[2] = target: T2, TNK1 (Homo sapiens, UniProt Q13470)
T2 construct: purchased Reaction Biology Corporation (Kinase HotSpot)
Procedure, shortened: as §1

[3] = target: T3, MELK (Homo sapiens, UniProt Q14680)
T3 construct: purchased Reaction Biology Corporation (Kinase HotSpot)
Procedure, shortened: as §1

[4] = target: T4, PAK4 (Homo sapiens, UniProt O96013)
T4 construct: purchased Reaction Biology Corporation (Kinase HotSpot)
Procedure, shortened: as §1

[5] = target: T5, NEK11 (Homo sapiens, UniProt Q8NG66)
T5 construct: purchased Reaction Biology Corporation (Kinase HotSpot)
Procedure, shortened: as §1

[6] = target: T6, MARK4 (Homo sapiens, UniProt Q96L34)
T6 construct: purchased Reaction Biology Corporation (Kinase HotSpot)
Procedure, shortened: as §1

[7] = target: T7, CDK1/cyclin B (Homo sapiens, UniProt P06493)
T7 construct: purchased Reaction Biology Corporation (Kinase HotSpot)
Procedure, shortened: as §1

[8] = target: T8, RSK2 (Homo sapiens, UniProt P51812)
T8 construct: purchased Reaction Biology Corporation (Kinase HotSpot)
Procedure, shortened: as §1

[9] = target: T9, ALK1/ACVRL1 (Homo sapiens, UniProt P37023)
T9 construct: purchased Reaction Biology Corporation (Kinase HotSpot)
Procedure, shortened: as §1

[10] = target: T10, CLK2 (Homo sapiens, UniProt P49760)
T10 construct: purchased Reaction Biology Corporation (Kinase HotSpot)
Procedure, shortened: as §1

[11] = target: T11, BLK (Homo sapiens, UniProt P51451)
T11 construct: purchased Reaction Biology Corporation (Kinase HotSpot)
Procedure, shortened: as §1

[12] = target: T12, P38g (Homo sapiens, UniProt P53778)
T12 construct: purchased Reaction Biology Corporation (Kinase HotSpot)
Procedure, shortened: as §1

[13] = target: T13, RIPK5 (Homo sapiens, UniProt Q6XUX3)
T13 construct: purchased Reaction Biology Corporation (Kinase HotSpot)
Procedure, shortened: as §1

[14] = target: T14, ARK5/NUAK1 (Homo sapiens, UniProt O60285)
T14 construct: purchased Reaction Biology Corporation (Kinase HotSpot)
Procedure, shortened: as §1

[15] = target: T15, RSK4 (Homo sapiens, UniProt Q9UK32)
T15 construct: purchased Reaction Biology Corporation (Kinase HotSpot)
Procedure, shortened: as §1

[16] = target: T16, MEK1 (Homo sapiens, UniProt Q02750)
T16 construct: purchased Reaction Biology Corporation (Kinase HotSpot)
Procedure, shortened: as §1

[17] = target: T17, BRSK1 (Homo sapiens, UniProt Q8TDC3)
T17 construct: purchased Reaction Biology Corporation (Kinase HotSpot)
Procedure, shortened: as §1

[18] = target: T18, IGF1R (Homo sapiens, UniProt P08069)
T18 construct: purchased Reaction Biology Corporation (Kinase HotSpot)
Procedure, shortened: as §1

[19] = target: T19, CAMK1d (Homo sapiens, UniProt Q8IU85)
T19 construct: purchased Reaction Biology Corporation (Kinase HotSpot)
Procedure, shortened: as §1

[20] = target: T20, PIM3 (Homo sapiens, UniProt Q86V86)
T20 construct: purchased Reaction Biology Corporation (Kinase HotSpot)
Procedure, shortened: as §1

[21] = target: T21, STK32C/YANK3 (Homo sapiens, UniProt Q86UX6)
T21 construct: purchased Reaction Biology Corporation (Kinase HotSpot)
Procedure, shortened: as §1

[22] = target: T22, TRKB (Homo sapiens, UniProt Q16620)
T22 construct: purchased Reaction Biology Corporation (Kinase HotSpot)
T22 sequence (Q16620 32-822): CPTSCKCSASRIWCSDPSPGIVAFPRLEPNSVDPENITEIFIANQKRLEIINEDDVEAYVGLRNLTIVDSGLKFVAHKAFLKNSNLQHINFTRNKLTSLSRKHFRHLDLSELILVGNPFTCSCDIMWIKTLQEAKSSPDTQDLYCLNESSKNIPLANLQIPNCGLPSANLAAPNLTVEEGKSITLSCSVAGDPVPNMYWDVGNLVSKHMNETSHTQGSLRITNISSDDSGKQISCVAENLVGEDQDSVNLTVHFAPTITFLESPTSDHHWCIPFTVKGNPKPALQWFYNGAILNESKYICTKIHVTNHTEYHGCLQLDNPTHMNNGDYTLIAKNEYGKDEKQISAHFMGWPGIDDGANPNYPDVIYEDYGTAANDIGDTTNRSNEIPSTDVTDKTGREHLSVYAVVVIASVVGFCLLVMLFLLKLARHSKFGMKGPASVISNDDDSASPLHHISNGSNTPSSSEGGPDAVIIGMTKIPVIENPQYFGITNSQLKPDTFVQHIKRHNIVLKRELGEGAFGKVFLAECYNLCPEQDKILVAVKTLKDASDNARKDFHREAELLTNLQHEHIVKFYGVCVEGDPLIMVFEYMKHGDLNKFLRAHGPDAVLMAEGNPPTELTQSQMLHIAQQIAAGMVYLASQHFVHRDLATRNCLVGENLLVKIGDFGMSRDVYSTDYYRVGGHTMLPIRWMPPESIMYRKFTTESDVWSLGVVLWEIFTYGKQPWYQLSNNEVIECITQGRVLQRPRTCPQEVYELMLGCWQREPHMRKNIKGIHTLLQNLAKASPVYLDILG
Procedure, shortened: as §1

[23] = target: T23, PYK2 (Homo sapiens, UniProt Q14289)
T23 construct: purchased Reaction Biology Corporation (Kinase HotSpot)
T23 sequence (Q14289 whole entry): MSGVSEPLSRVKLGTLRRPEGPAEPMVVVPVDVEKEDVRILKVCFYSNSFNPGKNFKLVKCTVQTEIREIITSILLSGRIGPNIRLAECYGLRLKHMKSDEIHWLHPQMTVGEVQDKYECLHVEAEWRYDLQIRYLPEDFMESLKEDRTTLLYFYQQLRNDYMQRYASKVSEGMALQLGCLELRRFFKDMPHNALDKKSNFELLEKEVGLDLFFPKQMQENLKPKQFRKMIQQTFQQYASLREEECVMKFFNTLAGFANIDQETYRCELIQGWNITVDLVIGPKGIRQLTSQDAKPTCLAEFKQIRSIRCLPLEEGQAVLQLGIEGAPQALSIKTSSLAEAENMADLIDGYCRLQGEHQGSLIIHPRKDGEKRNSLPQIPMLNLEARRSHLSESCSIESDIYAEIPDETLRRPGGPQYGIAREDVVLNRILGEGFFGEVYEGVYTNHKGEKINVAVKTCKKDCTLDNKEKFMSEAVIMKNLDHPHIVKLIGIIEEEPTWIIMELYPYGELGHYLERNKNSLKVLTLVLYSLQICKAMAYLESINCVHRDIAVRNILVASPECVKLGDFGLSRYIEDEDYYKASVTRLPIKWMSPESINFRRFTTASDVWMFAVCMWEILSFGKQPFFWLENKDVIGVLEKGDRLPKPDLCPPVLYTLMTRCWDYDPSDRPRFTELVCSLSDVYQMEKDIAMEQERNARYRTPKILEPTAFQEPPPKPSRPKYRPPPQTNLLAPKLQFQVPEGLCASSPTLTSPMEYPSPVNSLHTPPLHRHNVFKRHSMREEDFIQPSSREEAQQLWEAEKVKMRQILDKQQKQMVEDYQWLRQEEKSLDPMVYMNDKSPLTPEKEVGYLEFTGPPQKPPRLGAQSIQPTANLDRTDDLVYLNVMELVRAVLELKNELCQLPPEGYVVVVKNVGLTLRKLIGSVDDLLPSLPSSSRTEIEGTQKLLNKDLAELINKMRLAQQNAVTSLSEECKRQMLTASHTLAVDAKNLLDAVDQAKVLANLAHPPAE
Procedure, shortened: as §1

[24] = target: T24, JAK1 (Homo sapiens, UniProt P23458)
T24 construct: purchased Reaction Biology Corporation (Kinase HotSpot)
Procedure, shortened: as §1

[25] = target: T25, SRMS (Homo sapiens, UniProt Q9H3Y6)
T25 construct: purchased Reaction Biology Corporation (Kinase HotSpot)
T25 sequence (Q9H3Y6 whole entry): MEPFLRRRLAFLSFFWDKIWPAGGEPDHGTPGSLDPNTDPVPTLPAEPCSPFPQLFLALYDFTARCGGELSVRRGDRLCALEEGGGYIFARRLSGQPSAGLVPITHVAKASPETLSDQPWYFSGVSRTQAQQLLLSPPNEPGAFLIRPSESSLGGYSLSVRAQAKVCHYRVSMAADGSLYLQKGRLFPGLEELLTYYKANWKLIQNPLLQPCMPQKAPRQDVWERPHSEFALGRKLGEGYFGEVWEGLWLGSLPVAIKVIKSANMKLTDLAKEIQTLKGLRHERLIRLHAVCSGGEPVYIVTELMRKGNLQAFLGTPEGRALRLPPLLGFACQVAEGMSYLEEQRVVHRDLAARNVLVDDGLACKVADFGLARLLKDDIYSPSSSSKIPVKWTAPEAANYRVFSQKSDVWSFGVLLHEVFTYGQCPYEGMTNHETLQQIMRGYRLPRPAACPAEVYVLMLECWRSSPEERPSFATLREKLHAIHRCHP
Procedure, shortened: as §1

[26] = target: T26, EPHA6 (Homo sapiens, UniProt Q9UF33)
T26 construct: purchased Reaction Biology Corporation (Kinase HotSpot)
T26 sequence (Q9UF33 23-1036): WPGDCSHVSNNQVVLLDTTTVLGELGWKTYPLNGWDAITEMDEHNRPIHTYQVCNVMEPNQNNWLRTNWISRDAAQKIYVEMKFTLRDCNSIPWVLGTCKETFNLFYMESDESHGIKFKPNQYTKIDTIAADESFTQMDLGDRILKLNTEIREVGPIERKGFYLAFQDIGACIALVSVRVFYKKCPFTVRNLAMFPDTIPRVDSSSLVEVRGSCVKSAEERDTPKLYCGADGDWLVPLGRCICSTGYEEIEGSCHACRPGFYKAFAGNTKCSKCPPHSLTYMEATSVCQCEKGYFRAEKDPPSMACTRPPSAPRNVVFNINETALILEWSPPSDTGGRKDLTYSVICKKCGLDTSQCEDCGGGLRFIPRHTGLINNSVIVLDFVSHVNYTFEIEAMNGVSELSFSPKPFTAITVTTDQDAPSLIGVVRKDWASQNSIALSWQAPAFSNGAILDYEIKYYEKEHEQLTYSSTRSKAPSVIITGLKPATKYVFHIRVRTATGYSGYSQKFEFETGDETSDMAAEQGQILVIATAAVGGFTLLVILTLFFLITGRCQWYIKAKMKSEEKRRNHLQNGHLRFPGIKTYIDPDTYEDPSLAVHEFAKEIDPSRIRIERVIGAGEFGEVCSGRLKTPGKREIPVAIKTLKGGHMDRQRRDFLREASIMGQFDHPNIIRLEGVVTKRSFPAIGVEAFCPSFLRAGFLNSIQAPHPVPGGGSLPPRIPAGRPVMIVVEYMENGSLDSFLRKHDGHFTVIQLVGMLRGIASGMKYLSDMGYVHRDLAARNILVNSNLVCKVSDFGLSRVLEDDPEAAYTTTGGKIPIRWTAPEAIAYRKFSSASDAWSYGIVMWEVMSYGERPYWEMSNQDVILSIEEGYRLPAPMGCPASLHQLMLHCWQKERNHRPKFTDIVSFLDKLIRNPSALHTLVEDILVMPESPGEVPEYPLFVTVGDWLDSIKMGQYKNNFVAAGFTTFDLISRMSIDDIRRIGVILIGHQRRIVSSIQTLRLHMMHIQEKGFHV
Procedure, shortened: as §1

[27] = target: T27, CAMK2d (Homo sapiens, UniProt Q13557)
T27 construct: purchased Reaction Biology Corporation (Kinase HotSpot)
Procedure, shortened: as §1

[28] = target: T28, PAK3 (Homo sapiens, UniProt O75914)
T28 construct: purchased Reaction Biology Corporation (Kinase HotSpot)
Procedure, shortened: as §1

[29] = target: T29, DAPK1 (Homo sapiens, UniProt P53355)
T29 construct: purchased Reaction Biology Corporation (Kinase HotSpot)
T29 sequence (P53355 whole entry): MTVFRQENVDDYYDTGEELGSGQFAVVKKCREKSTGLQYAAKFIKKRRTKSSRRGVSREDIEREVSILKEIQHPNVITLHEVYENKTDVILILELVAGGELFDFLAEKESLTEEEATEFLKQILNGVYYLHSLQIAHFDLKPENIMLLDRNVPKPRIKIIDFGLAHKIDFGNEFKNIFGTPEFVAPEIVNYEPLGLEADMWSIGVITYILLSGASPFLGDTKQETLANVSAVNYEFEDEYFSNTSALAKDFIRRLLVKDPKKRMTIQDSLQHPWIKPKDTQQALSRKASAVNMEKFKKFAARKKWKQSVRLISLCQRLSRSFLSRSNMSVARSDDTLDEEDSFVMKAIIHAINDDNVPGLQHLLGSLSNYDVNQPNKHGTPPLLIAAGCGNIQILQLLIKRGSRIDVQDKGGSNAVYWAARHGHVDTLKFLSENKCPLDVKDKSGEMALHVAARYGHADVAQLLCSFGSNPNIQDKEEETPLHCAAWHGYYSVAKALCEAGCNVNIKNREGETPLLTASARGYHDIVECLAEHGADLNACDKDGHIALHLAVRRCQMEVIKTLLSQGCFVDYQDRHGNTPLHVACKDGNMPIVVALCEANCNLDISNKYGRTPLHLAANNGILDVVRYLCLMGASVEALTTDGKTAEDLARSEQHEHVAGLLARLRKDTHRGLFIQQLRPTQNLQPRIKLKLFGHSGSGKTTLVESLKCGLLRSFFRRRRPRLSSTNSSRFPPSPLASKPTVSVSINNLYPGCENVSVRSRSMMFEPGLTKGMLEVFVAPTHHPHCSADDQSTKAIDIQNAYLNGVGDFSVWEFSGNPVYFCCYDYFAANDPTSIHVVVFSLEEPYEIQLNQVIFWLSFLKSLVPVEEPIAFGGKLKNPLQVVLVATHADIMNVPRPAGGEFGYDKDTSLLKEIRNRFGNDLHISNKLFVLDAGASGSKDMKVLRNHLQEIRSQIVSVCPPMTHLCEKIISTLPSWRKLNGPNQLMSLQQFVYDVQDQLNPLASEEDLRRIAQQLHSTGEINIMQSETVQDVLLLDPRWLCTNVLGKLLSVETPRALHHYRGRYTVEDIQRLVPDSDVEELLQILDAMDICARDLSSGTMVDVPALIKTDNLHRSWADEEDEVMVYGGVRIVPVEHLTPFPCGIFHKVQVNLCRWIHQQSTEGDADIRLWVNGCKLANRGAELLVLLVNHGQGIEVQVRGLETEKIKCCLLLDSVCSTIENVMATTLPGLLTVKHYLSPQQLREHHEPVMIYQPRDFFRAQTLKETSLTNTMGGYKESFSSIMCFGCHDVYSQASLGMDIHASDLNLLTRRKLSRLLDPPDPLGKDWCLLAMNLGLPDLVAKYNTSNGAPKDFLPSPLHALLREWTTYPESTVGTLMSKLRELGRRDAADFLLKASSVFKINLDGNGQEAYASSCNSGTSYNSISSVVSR
Procedure, shortened: as §1

[30] = target: T30, KDR/VEGFR2 (Homo sapiens, UniProt P35968)
T30 construct: purchased Reaction Biology Corporation (Kinase HotSpot)
Procedure, shortened: as §1

Cc1cnc(N[C@H]2CC[C@H](N)CC2)nc1-c1cnc2ccc(-c3ccccc3)cn12 [CDDD11-8]
remaining activity at 1 µM [1]: 2.43%
remaining activity at 1 µM [2]: 55.4%
remaining activity at 1 µM [3]: 66.9%
remaining activity at 1 µM [4]: 99.7%
remaining activity at 1 µM [5]: 100%
remaining activity at 1 µM [6]: 22.4%
remaining activity at 1 µM [7]: 69.5%
remaining activity at 1 µM [8]: 71%
remaining activity at 1 µM [9]: 96.9%
remaining activity at 1 µM [10]: 47%
remaining activity at 1 µM [11]: 47.2%
remaining activity at 1 µM [12]: 100%
remaining activity at 1 µM [13]: 93%
remaining activity at 1 µM [14]: 7.93%
remaining activity at 1 µM [15]: 43.4%
remaining activity at 1 µM [16]: 98.9%
remaining activity at 1 µM [17]: 97.4%
remaining activity at 1 µM [18]: 79%
remaining activity at 1 µM [19]: 87.1%
remaining activity at 1 µM [20]: 72.6%
remaining activity at 1 µM [21]: 91.1%
remaining activity at 1 µM [22]: 10.8%
remaining activity at 1 µM [23]: 84.2%
remaining activity at 1 µM [24]: 93.3%
remaining activity at 1 µM [25]: 101%
remaining activity at 1 µM [26]: 88.4%
remaining activity at 1 µM [27]: 17.3%
remaining activity at 1 µM [28]: 87.5%
remaining activity at 1 µM [29]: 96.1%
remaining activity at 1 µM [30]: 86.9%
